Molecular target: ASK1 (Apoptosis Signal-Regulating Kinase 1) (Homo sapiens (Human), UniProt Q99683)
Assay: ASK1 (Apoptosis Signal-Regulating Kinase 1) TR-FRET Kinase Assay (Biochemical IC50)
Conditions: TR-FRET, biotin-MBP substrate, 20 min pre-incubation, ATP added as 300 μM solution

Chain of ASK1 (Apoptosis Signal-Regulating Kinase 1) (Q99683 649-946): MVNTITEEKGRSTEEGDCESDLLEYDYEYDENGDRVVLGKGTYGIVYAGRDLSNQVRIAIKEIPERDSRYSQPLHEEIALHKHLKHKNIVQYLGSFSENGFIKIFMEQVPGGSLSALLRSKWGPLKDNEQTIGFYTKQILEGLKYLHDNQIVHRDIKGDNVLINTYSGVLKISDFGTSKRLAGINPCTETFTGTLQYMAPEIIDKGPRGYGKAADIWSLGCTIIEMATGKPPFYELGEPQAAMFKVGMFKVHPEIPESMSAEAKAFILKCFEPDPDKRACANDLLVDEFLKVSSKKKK

Compound	IC50 [nM]
O=C(Nc1cccc(-c2nncn2C2CC2)c1)c1cc(-c2cnc3c(c2)CN(CC(F)(F)F)CC3)ccn1 [Example 161, N-(3-(4-cyclopropyl-4H-1,2,4-triazol-3-yl)phenyl)-4-(6-(2,2,2-trifluoroethyl)-5,6,7,8-tetrahydro-1,6-naphthyridin-3-yl)picolinamide]	9
CC(C)(O)c1ccc(-c2ccnc(C(=O)Nc3cccc(-c4nncn4C4CC4)c3)c2)cn1 [Example 165, N-(3-(4-cyclopropyl-4H-1,2,4-triazol-3-yl)phenyl)-6-(2-hydroxypropan-2-yl)-3,4′-bipyridine-2′-carboxamide]	5
CC(C)(O)c1ccc(-c2ccnc(C(=O)Nc3cccc(-c4nncn4C4CC4)n3)c2)cn1 [Example 166, N-(6-(4-cyclopropyl-4H-1,2,4-triazol-3-yl)pyridin-2-yl)-6-(2-hydroxypropan-2-yl)-3,4′-bipyridine-2′-carboxamide]	5
CC(C)c1cn(-c2ccnc(C(=O)Nc3cccc(-c4nncn4C4CC4)n3)c2)cn1 [Example 167, N-(6-(4-cyclopropyl-4H-1,2,4-triazol-3-yl)pyridin-2-yl)-4-(4-isopropyl-1H-imidazol-1-yl)picolinamide]	7
O=C(Nc1cc(F)cc(-c2nncn2C2CC2)c1)c1cc(-c2ccc(C3CC3)nc2)ccn1 [Example 168, 6-cyclopropyl-N-(3-(4-cyclopropyl-4H-1,2,4-triazol-3-yl)-5-fluorophenyl)-3,4′-bipyridine-2′-carboxamide]	143
O=C(Nc1cc(F)cc(-c2nncn2C2CC2)c1)c1cc(-c2cccnc2)ccn1 [Example 169, N-(3-(4-cyclopropyl-4H-1,2,4-triazol-3-yl)-5-fluorophenyl)-3,4′-bipyridine-2′-carboxamide]	157
O=C(Nc1cccc(-c2nncn2C2CC2)n1)c1cc(-n2cnc(C3CC3)c2)ccn1 [Example 170, 4-(4-cyclopropyl-1H-imidazol-1-yl)-N-(6-(4-cyclopropyl-4H-1,2,4-triazol-3-yl)pyridin-2-yl)picolinamide]	7
O=C(Nc1cccc(-c2nncn2C2CC2)c1)c1cc(-c2ccc(CC(F)(F)F)nc2)ccn1 [Example 171, N-(3-(4-cyclopropyl-4H-1,2,4-triazol-3-yl)phenyl)-6-(2,2,2-trifluoroethyl)-3,4′-bipyridine-2′-carboxamide]	7
O=C(Nc1cccc(-c2nncn2C2CC2)n1)c1cc(N2CCCC(O)C2)ccn1 (centres unmarked) [Example 175, N-(6-(4-cyclopropyl-4H-1,2,4-triazol-3-yl)pyridin-2-yl)-4-(3-hydroxypiperidin-1-yl)picolinamide]	10
CCN1CCN(c2ccnc(C(=O)Nc3cccc(-c4nncn4C4CC4)c3)c2)CC1=O [Example 177, N-(3-(4-cyclopropyl-4H-1,2,4-triazol-3-yl)phenyl)-4-(4-ethyl-3-oxopiperazin-1-yl)picolinamide]	47
C[C@H](n1cnnc1-c1cccc(NC(=O)c2cc(-c3ccc(C4CC4)nc3)ccn2)n1)C(F)(F)F [Example 179, (S)-6-cyclopropyl-N-(6-(4-(1,1,1-trifluoropropan-2-yl)-4H-1,2,4-triazol-3-yl)pyridin-2-yl)-3,4′-bipyridine-2′-carboxamide]	19
CC(C)n1cnnc1-c1cccc(NC(=O)c2cc(-c3cccnc3)ccn2)c1 [Example 180, N-(3-(4-isopropyl-4H-1,2,4-triazol-3-yl)phenyl)-3,4′-bipyridine-2′-carboxamide]	27
O=C(Nc1cccc(-c2nncn2CC2CC2)c1)c1cc(-c2cccnc2)ccn1 [Example 181, N-(3-(4-(cyclopropylmethyl)-4H-1,2,4-triazol-3-yl)phenyl)-3,4′-bipyridine-2′-carboxamide]	131
Cc1nc(C2CC2)cn1-c1ccnc(C(=O)Nc2cccc(-c3nncn3C3CC3)n2)c1 [Example 183, 4-(4-cyclopropyl-2-methyl-1H-imidazol-1-yl)-N-(6-(4-cyclopropyl-4H-1,2,4-triazol-3-yl)pyridin-2-yl)picolinamide]	8
CC(C)n1cnnc1-c1cccc(NC(=O)c2cc(-n3cnc(C4CC4)c3)ccn2)c1 [Example 184, 4-(4-cyclopropyl-1H-imidazol-1-yl)-N-(3-(4-isopropyl-4H-1,2,4-triazol-3-yl)phenyl)picolinamide]	20
O=C(Nc1cccc(-c2nncn2C2CC2)n1)c1cc(-n2cnc3c2CCCC3)ccn1 [Example 187, N-(6-(4-cyclopropyl-4H-1,2,4-triazol-3-yl)pyridin-2-yl)-4-(4,5,6,7-tetrahydro-1H-benzo[d]imidazol-1-yl)picolinamide]	4
C[C@H](n1cnnc1-c1cccc(NC(=O)c2cc(-n3cnc(C4CC4)c3)ccn2)c1)C(F)(F)F [Example 189, (S)-4-(4-cyclopropyl-1H-imidazol-1-yl)-N-(3-(4-(1,1,1-trifluoropropan-2-yl)-4H-1,2,4-triazol-3-yl)phenyl)picolinamide]	9
O=C(Nc1cccc(-c2nncn2C2CC2)c1)c1cc(-c2cnc3cccnc3c2)ccn1 [Example 190, N-(3-(4-cyclopropyl-4H-1,2,4-triazol-3-yl)phenyl)-4-(1,5-naphthyridin-3-yl)picolinamide]	13
CC(C)c1cn(-c2cccc(C(=O)Nc3cccc(-c4nncn4C4CC4)n3)c2)cn1 [Example 193, N-(6-(4-cyclopropyl-4H-1,2,4-triazol-3-yl)pyridin-2-yl)-3-(4-isopropyl-1H-imidazol-1-yl)benzamide]	5
Cc1c(C(=O)Nc2cccc(-c3nncn3C3CC3)n2)cccc1-n1cnc(C2CC2)c1 [Example 196, 3-(4-cyclopropyl-1H-imidazol-1-yl)-N-(6-(4-cyclopropyl-4H-1,2,4-triazol-3-yl)pyridin-2-yl)-2-methylbenzamide]	1260

The remaining lines, values ahead:

IC50 [nM]	Compound
4	CC(C)c1cn(-c2ccnc(C(=O)Nc3cccc(-c4nncn4C4CC4)c3)c2)cn1 [Example 163, N-(3-(4-cyclopropyl-4H-1,2,4-triazol-3-yl)phenyl)-4-(4-isopropyl-1H-imidazol-1-yl)picolinamide]
18	O=C(Nc1cc(-c2nncn2C2CC2)ccn1)c1cc(-c2cccnc2)ccn1 [Example 164, N-(4-(4-cyclopropyl-4H-1,2,4-triazol-3-yl)pyridin-2-yl)-3,4′-bipyridine-2′-carboxamide]
17	CC(C)N1CCc2ncc(-c3ccnc(C(=O)Nc4cccc(-c5nncn5C5CC5)c4)c3)cc2C1 [Example 172, N-(3-(4-cyclopropyl-4H-1,2,4-triazol-3-yl)phenyl)-4-(6-isopropyl-5,6,7,8-tetrahydro-1,6-naphthyridin-3-yl)picolinamide]
21	CN1CCc2ncc(-c3ccnc(C(=O)Nc4cccc(-c5nncn5C5CC5)c4)c3)cc2C1 [Example 173, N-(3-(4-cyclopropyl-4H-1,2,4-triazol-3-yl)phenyl)-4-(6-methyl-5,6,7,8-tetrahydro-1,6-naphthyridin-3-yl)picolinamide]
93	O=C(Nc1cccc(-c2nncn2C2CC2)c1)c1cc(N2CCCC(O)C2)ccn1 (centres unmarked) [Example 174, N-(3-(4-cyclopropyl-4H-1,2,4-triazol-3-yl)phenyl)-4-(3-hydroxypiperidin-1-yl)picolinamide]
13	CC(C)n1cnnc1-c1cccc(NC(=O)c2cc(-c3ccc(C4CC4)nc3)ccn2)n1 [Example 176, 6-cyclopropyl-N-(6-(4-isopropyl-4H-1,2,4-triazol-3-yl)pyridin-2-yl)-3,4′-bipyridine-2′-carboxamide]
7	CCN1CCN(c2ccnc(C(=O)Nc3cccc(-c4nncn4C4CC4)n3)c2)CC1=O [Example 178, N-(6-(4-cyclopropyl-4H-1,2,4-triazol-3-yl)pyridin-2-yl)-4-(4-ethyl-3-oxopiperazin-1-yl)picolinamide]
15	Cc1nc(C2CC2)cn1-c1ccnc(C(=O)Nc2cccc(-c3nncn3C3CC3)c2)c1 [Example 182, 4-(4-cyclopropyl-2-methyl-1H-imidazol-1-yl)-N-(3-(4-cyclopropyl-4H-1,2,4-triazol-3-yl)phenyl)picolinamide]
34	O=C(Nc1cccc(-c2nncn2CC2CC2)c1)c1cc(-n2cnc(C3CC3)c2)ccn1 [Example 185, 4-(4-cyclopropyl-1H-imidazol-1-yl)-N-(3-(4-(cyclopropylmethyl)-4H-1,2,4-triazol-3-yl)phenyl)picolinamde]
30	CC(c1ccccc1)n1cnnc1-c1cccc(NC(=O)c2cc(-n3cnc(C4CC4)c3)ccn2)c1 (centres unmarked) [Example 186, 4-(4-cyclopropyl-1H-imidazol-1-yl)-N-(3-(4-(1-phenylethyl)-4H-1,2,4-triazol-3-yl)phenyl)picolinamide]
6	O=C(Nc1cccc(-c2nncn2C2CC2)n1)c1cc(-n2cnc(C(F)(F)F)c2)ccn1 [Example 188, N-(6-(4-cyclopropyl-4H-1,2,4-triazol-3-yl)pyridin-2-yl)-4-(4-(trifluoromethyl)-1H-imidazol-1-yl)picolinamide]
18	O=C(Nc1cccc(-c2nncn2C2CC2)n1)c1cccc(-c2cnc3cccnc3c2)c1 [Example 191, N-(6-(4-cyclopropyl-4H-1,2,4-triazol-3-yl)pyridin-2-yl)-3-(1,5-naphthyridin-3-yl)benzamide]
7	O=C(Nc1cccc(-c2nncn2C2CC2)n1)c1cccc(-n2cnc(C3CC3)c2)c1 [Example 192, 3-(4-cyclopropyl-1H-imidazol-1-yl)-N-(6-(4-cyclopropyl-4H-1,2,4-triazol-3-yl)pyridin-2-yl)benzamide]
12	O=C(Nc1cccc(-c2nncn2C2CC2)c1)c1cc(-n2cnc3c2CCNC3C(F)(F)F)ccn1 (centres unmarked) [Example 194, N-(3-(4-cyclopropyl-4H-1,2,4-triazol-3-yl)phenyl)-4-(4-(trifluoromethyl)-4,5,6,7-tetrahydro-1H-imidazo[4,5-c]pyridin-1-yl)picolinamide]
8	O=C(Nc1cccc(-c2nncn2C2CC2)n1)c1cc(-n2cnc3c2CCNC3C(F)(F)F)ccn1 (centres unmarked) [Example 195, N-(6-(4-cyclopropyl-4H-1,2,4-triazol-3-yl)pyridin-2-yl)-4-(4-(trifluoromethyl)-4,5,6,7-tetrahydro-1H-imidazo[4,5-c]pyridin-1-yl)picolinamide]
